Test results: US20060233887A1, “Bioactive material for use in stimulating vascularization” (The North West London Hospitals N H S Trust, priority 2003, published 2006)

System: human endothelial cells
Assay: In vitro angiogenesis assay (Angiogenesis Assay Kit, CD31 staining, AngioSys image analysis)
Format: cell-based
Settings: 11 days
Description: To evaluate the angiogenic growth factors secreted from fibroblasts in response to 45S5 Bioglass®, a commercial angiogenesis assay (Angiogenesis Assay Kit; TCS CellWorks Ltd) was used (Donovan D et al. Comparison of three in vitro human ‘angiogenesis’ assays with capillaries formed in vivo. Angiogenesis. 2001;4:113-121; Drinkwater S L et al Effect of venous ulcer exudates on angiogenesis in vitro. Br J Surg. 2002;89:709-713; Sengupta S et al. Thymidine phosphorylase induces angiogenesis in vivo and in vitro: an evaluation of possible mechanisms. Br J Pharmacol. 2003;139:219-231). The assay was performed according to the manufacturer's instructions.
In brief, on the day of delivery from the supplier, the medium in the culture plate was replaced with optimised medium (TCS CellWorks Ltd; supplied with the kit) alone (OM); OM:conditioned medium (medium collected from human colonic fibroblasts (CCD-18co) cultured on 0 g/cm^2 or 0.3125 mg/cm^2 45S5 Bioglass® for 72 hours) at 1:1 v/v; OM containing 2 ng/ml VEGF (positive control); or OM containing 20 μM suramin (negative control). Each treatment condition was repeated in quadruplicate. The culture medium was removed on days 4, 7 and 9 of the experiment and replaced with fresh pre-equilibrated (37° C. and 5% CO2) optimised medium plus each treatment. After 11 days, the endothelial cells were stained for CD31 (TCS CellWorks Ltd) using indirect immunocytochemistry as described in the manufacturer's instructions and allowed to air-dry. Each well was divided into quadrants on the underside of the plate. Photomicrographs of each quadrant were recorded with a Nikon Eclipse TE2000-S inverted photomicroscope fitted with a digital camera using a 4× objective lens. Image analysis software (AngioSys, Foster Findlay Associates, Newcastle Upon Tyne, UK) was used for automated scoring of the assay, providing quantitative measurements of endothelial tubule development (total vessel number, total tubule length and number of junctions), as previously described (Drinkwater S L et al Effect of venous ulcer exudates on angiogenesis in vitro. Br J Surg. 2002;89:709-713; Sengupta S et al. Thymidine phosphorylase induces angiogenesis in vivo and in vitro: an evaluation of possible mechanisms. Br J Pharmacol. 2003; 139:219-231).

[1] = 20 μM suramin, vs control endothelial cells

Molecule | number of endothelial tubules [1] | number of tubule junctions [1] | total tubule length [1] | number of anastomosed endothelial tubules (micrographs) (2 ng/ml VEGF, vs optimised medium alone) | endothelial tubule development (tubules, tubule length, junctions) (2 ng/ml VEGF, positive control)
Cc1ccc(C(=O)Nc2ccc(S(=O)(=O)O)c3cc(S(=O)(=O)O)cc(S(=O)(=O)O)c23)cc1NC(=O)c1cccc(NC(=O)Nc2cccc(C(=O)Nc3cc(C(=O)Nc4ccc(S(=O)(=O)O)c5cc(S(=O)(=O)O)cc(S(=O)(=O)O)c45)ccc3C)c2)c1 [suramin] | reduced | reduced | reduced | – | –
VEGF | – | – | – | visible increase | Significant increases
